According to patent US20240197610A1, “CERAMIDE GROWTH PROMOTING AGENT” (TAKASAGO INTERNATIONAL CORPORATION, priority 2020, published 2024):

System: late differentiated cultured human keratinocytes (LDKs)
Test: Ceramide growth test in cultured human keratinocytes (LC-ESI-MS/MS quantification of ceramide species)
Assay type: cell-based
Description: Experiments were conducted using undifferentiated and late differentiated cultured human keratinocytes (KCs). Human keratinocytes were cultured in a serum-free KC growth medium containing 0.07 mM calcium, and collected to be undifferentiated cells when KCs occupied up to about 60% to 70% of the total area of the culture petri dish (about 60% to 70% confluence). KCs were cultured in a serum-free KC growth medium containing 0.07 mM of calcium, and the medium was replaced with DMEM containing 10% fetal bovine serum containing 1.2 mM of calcium, 10 μg/mL insulin, 0.4 μg/mL hydrocortisone, and 50 μg/mL of vitamin C and Ham's F-12 (2:1, v/v) when KCs occupied up to about 70% to 80% of the total area of the culture petri dish (about 70% to 80% confluence), followed by culturing for 8 days. Next, cells cultured for 3 days in a DMEM medium containing 10% fetal bovine serum containing 1.2 mM of calcium, 10 μg/mL insulin, 0.4 μg/mL hydrocortisone, and 50 μg/mL of vitamin C were used as late differentiated cultured human keratinocytes (LDKs).
From the second day of culture to the fourth, sixth, eighth, ninth, and tenth days, the ceramide preparation (I % ceramide NDS solution) prepared in Example 1 was diluted with a medium, filtered with a filter paper having a pore size of 0.45 μm, and 15.9 μL, 79.6 μL, and 397.7 μL (=10 μM, 50 μM, 250 μM) thereof were added, separately. In addition, 79.6 μL of a Blk solution not containing ceramide prepared in Comparative Example 1 was added, followed by culturing.
100 μg of each of the culture solutions prepared above and 100 μmol of an internal standard substance mixture (C17 (carbon number 17)-ceramide NS=N-octadecanoylamino-C17 sphingosine, C17-sphingosine, C17-dihydrosphingosine) were added to a mixed solution of a 0.1 N HCl aqueous solution: chloroform: methanol (volume ratio 1:2:1) and stirred, and then the organic phase of the lower layer was dried in vacuo, and the extraction drying operation was repeated twice. The obtained residue was dissolved in 200 μl of a methanol/acetonitrile equivalent mixture, and analyzed by the following liquid chromatography tandem mass spectrometry (LC-ESI-MS/MS) system (API 3200 QTRAP mass, ABCIEX). […]
10 μL of the extracted sample was analyzed by HPLC (HTS HPLC system manufactured by Shiseido Co., Ltd.) with a reverse phase KINTEX C18 column (2.1×50 mm, ID=2.6 μm). The column was previously equilibrated with a solvent A (MeOH: 0.05% formic acid aqueous solution: 80:20), the lipid was dissolved in a solvent B(2-propanol:0.05% formic acid methanol solution: 99:1), and a mass spectrum was detected in a positive mode by electrospray ionization with a gradient applied at a flow rate of 0.3 ml/min. […]

`CCCCCCCCCCCCCCCCCC(=O)N[C@@H](CO)[C@H](O)CCCCCCCCCCCCCCC` [ceramide NDS, (2S,3R)-2-octadecanoylaminooctadecane-1,3-diol] was tested, and the “ceramide NSs (acyl chain length 14 to 26) amount” value (Example 1 preparation added at 10 μM, 50 μM, 250 μM, 10 days culture, p<0.01 vs LDK without ceramide NDS, FIG. 4) was “significantly increased”, the “ceramide NDSs (different acyl chain lengths of 14 to 26) amount” value (Example 1 preparation added at 10 μM, 50 μM, 250 μM, 10 days culture, p<0.01 vs LDK without ceramide NDS, FIG. 5) was “significantly increased” and the “ceramide EOSs (ω-hydroxy acid amide bond of 30 and 32 carbon atoms, esterified with linoleic acid at ω-position) amount” value (Example 1 preparation added at 10 μM, 50 μM, 250 μM, 10 days culture, p<0.01 vs LDKs without ceramide NDS, FIG. 3) was “significantly increased”. The “growth of various ceramide species” value (ceramide preparation added to keratinocyte culture) was “are grown”.
